Like-named read-outs stand apart in the source and are kept apart here.
Columns and labels:
PC12 cells = experiment: Cytotoxicity on PC12 cells; assay type: cell-based; conditions: at concentration below 40 µM
Procedure: (§1) The neuroprotective effect of compounds 3a, 3c, 3e, 3f, 3k, 3m, and 3n on Aβ25–35-induced PC12 cells injury were evaluated using CCK-8 assay. […] Furthermore, as shown in Figure 12(B), when PC12 cells were exposed to 25 µM Aβ25-35, the cell viability sharply declined to 57.3% (p < 0.01) compared with untreated group.
(§2) The PC12 cells during the logarithmic growth phase were digested and centrifuged with pancreatic enzyme solution, the cells were resuspended by adding the prepared media solution, and piped evenly with a pipette to seed in a 96-well cell culture plate (cell concentration adjusted to 2.0 × 10^4 cell·mL^−1). Each well was added 100 µL complete medium was added to each well and incubated at 37 °C and 5% CO2 for 24 h.

IL-1β = IL-1β production in LPS-stimulated BV-2 cells (ELISA); assay type: cell-based; conditions: 1 µg/mL LPS 24 h
Procedure: (§3) Firstly, the cytotoxicity of compounds 3a, 3c, 3e, 3f, 3k, 3m and 3n were tested using CCK8 assay.
(§4) BV-2 cells (2 × 10^5 cells/well) were seeded in a 24-well cell culture plates. The cells were divided into blank control group, model group (1 µg/mL LPS), LPS + 2 µM compound group, LPS + 1 µM compound group. Each drug group was pre-treated with corresponding concentration of drug solution for 8 h. After 8 h, the culture medium was aspirated out. Except for the blank control group, which was added with DMEM medium, the other groups were stimulated with 1 µg/mL LPS for 24 h. Then cell supernatant was aspirated and centrifuged at 3000 rpm for 3 min. The content of NO in cell culture supernatant was determined by Griess method, and the levels of cytokines IL-6 and IL-1β in cell culture supernatant were determined by IL-6 ELISA kit and IL-1β ELISA kit, respectively.

BV-2 cells = experiment: Cytotoxicity on BV-2 cells (CCK8 assay); assay type: cell-based; conditions: compounds at 2 µM
Procedure: as §3
BV-2 cells were cultured in DMEM containing 10% foetal bovine serum, 100 U/mL penicillin, 100 U/mL streptomycin, and 1% nonessential amino acid at 37 °C with 5% CO2.
BV-2 cells in logarithmic growth stage were digested and centrifuged, and then resuspended in DMEM medium containing 1% penicillin-streptomycin and 10% foetal bovine serum. The cells was adjusted to 1.2 × 10^4 cells/well, and then seeded evenly in 96-well cell culture plates. The cells were incubated for 36 h at 37 °C with 5% CO2. After incubation, the cells were added to different concentrations (10 and 2 µM) of tested compounds, and incubated for 24 h at 37 °C with 5% CO2. Then, 10 µL CCK-8 solution was added to each well, and incubated for another 1 h at 37 °C with 5% CO2. The OD values were tested at […]. The cell viability (%) = {(ODdrug−ODblank)}/{(ODcontrol−ODblank)} × 100%.

eqBuChE = biological target: T1, eqBuChE (Equus caballus, UniProt P81908); experiment: biochemical; design: species or system equine; conditions: read-out: eqBuChE inhibition rate
T1 construct: eqBuChE, from equine serum; purchased Sigma Aldrich; host or cells: equine serum (natural source)
Procedure: (§5) The inhibitory activities of the synthesised compounds against eeAChE (from electric eel) and eqBuChE (from equine serum) were tested by the modified Ellman’s method[26]^,[27]. […] The determination of AChE and BuChE inhibitory potency of the synthesised compounds were evaluated by Ellman assay, the detailed procedure referred to our previous work[26]^,[27].

eeAChE = biological target: T2, eeAChE (Electrophorus electricus, UniProt O42275); experiment: biochemical; design: species or system electric eel
T2 construct: eeAChE, from the electric eel; purchased Sigma Aldrich; host or cells: electric eel (natural source)
Procedure: as §5

[1] = tested on: Aβ25-35-induced PC12 cells injury; experiment: Neuroprotective effect on Aβ25-35-induced PC12 cells injury (CCK-8); assay type: cell-based; conditions: 25 µM Aβ25-35; model cell viability 57.3%
Procedure: as §1
• Preparation of Aβ25-35 aggregation. Aβ25-35 was purchased from sigma. 1 mg Aβ25-35 was dissolved in 943 µL of sterilised deionised water to obtain 1 mM stock solution, aliquoted, –20 °C preservation. Removing the appropriate volume in a 48-well plate and incubated in a 37 °C incubator for two days to allow its ageing to accumulate and produce neurotoxicity. After aggregation was completed, the solution was diluted with PBS to get 25 µM solution of Aβ25-35 aggregation. • Neuroprotective effects of compounds on Aβ25-35-induced PC12 cells injury
as §2
After incubation for 24 h, PC12 cells were divided into blank group, control group, Aβ25-35 model group and tested compounds group (5, 10, 20 µM). Then the original medium was discarded, and 100 µL new complete medium were added to PC12 cells, and the tested compounds group was added to 100 µL complete medium containing different concentrations (5, 10, and 20 µM) of tested compounds, incubated for 2 h at 37 °C, 5% CO2 conditions. After incubation for 2 h, 10 µL Aβ25-35 solution was added to the tested compounds groups and model group (the final concentration of Aβ25-35 was 25 µM), and incubated for 24 h at 37 °C, 5% CO2 conditions, 10 µL CCK-8 was added to each well and further incubated for 1 h at 37 °C and 5% CO2. Finally, the OD value was measured at 450 nm using a microplate reader, and each concentration set three wells. The cell survival rate (%) was determined according to the following formula: cell viability (%) = {(ODdrug−ODblank)}/{(ODcontrol−ODblank)}.

IL-6 = IL-6 production in LPS-stimulated BV-2 cells (ELISA); assay type: cell-based; conditions: 1 µM and 2 µM; 1 µg/mL LPS 24 h
Procedure: as §3, §4

NO = NO release in LPS-stimulated BV-2 cells (Griess method); assay type: cell-based; conditions: 1 µg/mL LPS 24 h
Procedure: as §3, §4

ACh = ACh level in AlCl3-induced zebrafish AD model tissue; assay type: in vivo; conditions: 8 µM; model 7.3, untreated 13.9 pmol/L
Description: . After the behavioural experiments, the 168hpf zebrafish were killed and ground, the tissue were used to test the AChE activity and ACh levels. […] .

hBuChE = biological target: T3, hBuChE (Homo sapiens, UniProt P06276); experiment: hBuChE reversibility of inhibition (recovery after dilution); assay type: biochemical
T3 construct: hBuChE, human serum BuChE; purchased Sigma Aldrich; host or cells: human serum (natural source)

[2] = AChE from electric eel, read-out: IC50 ± SD eeAChE

T2 sequence (O42275 24-633): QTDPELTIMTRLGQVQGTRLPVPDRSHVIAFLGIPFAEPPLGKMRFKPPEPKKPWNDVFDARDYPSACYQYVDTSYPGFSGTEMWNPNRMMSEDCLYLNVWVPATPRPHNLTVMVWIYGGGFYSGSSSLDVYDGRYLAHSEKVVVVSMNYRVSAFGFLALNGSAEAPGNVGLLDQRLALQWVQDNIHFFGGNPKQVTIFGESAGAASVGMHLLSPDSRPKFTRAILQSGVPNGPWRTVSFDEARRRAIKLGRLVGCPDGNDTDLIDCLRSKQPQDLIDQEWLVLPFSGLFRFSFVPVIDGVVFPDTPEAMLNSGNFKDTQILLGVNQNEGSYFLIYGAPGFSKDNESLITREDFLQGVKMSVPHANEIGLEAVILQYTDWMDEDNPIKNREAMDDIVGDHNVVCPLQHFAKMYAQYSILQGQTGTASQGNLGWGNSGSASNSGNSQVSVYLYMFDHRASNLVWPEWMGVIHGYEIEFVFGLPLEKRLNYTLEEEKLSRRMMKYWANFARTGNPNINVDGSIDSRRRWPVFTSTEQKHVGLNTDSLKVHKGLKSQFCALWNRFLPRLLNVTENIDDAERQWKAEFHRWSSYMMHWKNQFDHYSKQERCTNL
T3 sequence (P06276 29-602): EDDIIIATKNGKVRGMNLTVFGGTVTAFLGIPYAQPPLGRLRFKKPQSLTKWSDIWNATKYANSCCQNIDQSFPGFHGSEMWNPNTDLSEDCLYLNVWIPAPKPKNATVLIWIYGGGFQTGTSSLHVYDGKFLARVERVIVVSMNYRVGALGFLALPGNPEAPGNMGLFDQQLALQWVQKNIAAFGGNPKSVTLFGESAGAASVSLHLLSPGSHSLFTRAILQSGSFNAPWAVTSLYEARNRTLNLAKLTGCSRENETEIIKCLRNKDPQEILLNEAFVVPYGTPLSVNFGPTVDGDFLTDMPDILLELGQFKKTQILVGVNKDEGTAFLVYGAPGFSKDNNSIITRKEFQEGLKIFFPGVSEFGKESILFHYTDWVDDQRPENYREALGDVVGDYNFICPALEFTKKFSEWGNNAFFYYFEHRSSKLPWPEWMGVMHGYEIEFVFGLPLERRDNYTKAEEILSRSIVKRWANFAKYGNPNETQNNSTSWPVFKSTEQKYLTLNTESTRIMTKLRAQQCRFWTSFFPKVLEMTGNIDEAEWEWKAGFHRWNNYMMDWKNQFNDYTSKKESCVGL
T1 sequence (P81908 whole entry): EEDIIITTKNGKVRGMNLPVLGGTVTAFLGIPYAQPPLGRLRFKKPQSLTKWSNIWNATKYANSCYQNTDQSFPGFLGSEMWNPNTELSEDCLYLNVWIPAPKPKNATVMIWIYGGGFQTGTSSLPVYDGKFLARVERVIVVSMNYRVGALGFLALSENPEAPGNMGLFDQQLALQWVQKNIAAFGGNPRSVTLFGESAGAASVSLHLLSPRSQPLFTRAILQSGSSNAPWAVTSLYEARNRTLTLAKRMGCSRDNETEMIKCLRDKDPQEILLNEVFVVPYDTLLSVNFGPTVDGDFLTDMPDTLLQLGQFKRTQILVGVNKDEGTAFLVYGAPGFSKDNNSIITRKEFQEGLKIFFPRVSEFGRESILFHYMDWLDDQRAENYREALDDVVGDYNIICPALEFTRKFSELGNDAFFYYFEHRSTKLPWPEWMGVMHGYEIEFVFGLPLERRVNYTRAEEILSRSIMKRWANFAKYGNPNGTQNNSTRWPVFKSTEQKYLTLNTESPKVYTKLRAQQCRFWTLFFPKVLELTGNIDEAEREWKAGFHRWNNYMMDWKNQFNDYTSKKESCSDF

Row | Structure (SMILES) | cytotoxicity on PC12 cells (PC12 cells) | levels of IL-1β compared with model group (IL-1β) | cell viability of BV-2 cells (BV-2 cells) | inhibition at 25 µM (eqBuChE) | IC50 (eeAChE) | neuroprotective effect on Aβ25-35-induced PC12 cells injury [1] | levels of IL-6 compared with model group (IL-6) | release volume of NO (NO) | inhibition at 25 µM (eqBuChE; at 25 μM of compounds) | IC50 (eeAChE; [2]) | also measured
1 | CCN(C)C(=O)Oc1ccc2ncccc2c1 [Compound 3k, Quinolin-6-yl ethyl(methyl)carbamate] | did not show any cytotoxicity | significantly decreased | did not show obvious change | 5.8 ± 0.03% | 10.3 ± 0.58 µM | significant neuroprotective effects at 10 µM | significantly decreased | significantly decreased |  |  | 
2 | O=C(Oc1ccc2ncccc2c1)N1CCOCC1 [Compound 3l, Quinolin-6-yl morpholine-4-carboxylate] |  |  |  |  |  |  |  |  | 13.8 ± 0.61% | 17.6 ± 0.61 µM | 
3 | CN(C)C(=O)Oc1cccc2cccnc12 [Compound 3m, Quinolin-8-yl dimethylcarbamate] | did not show any cytotoxicity | did not obviously decrease | did not show obvious change | 7.3 ± 0.05% | 6.5 ± 0.05 µM | significant neuroprotective effects at 5 and 10 µM | significantly decreased | significantly decreased |  |  | 
4 | CCN(CC)C(=O)Oc1cccc2cccnc12 [Compound 3n, Quinolin-8-yl diethylcarbamate] | did not show any cytotoxicity | did not obviously decrease | did not show obvious change |  |  | significant neuroprotective effects at 5 and 10 µM | significantly decreased | significantly decreased | 2.4 ± 0.01% | 9.7 ± 0.07 µM | 
5 | CCN(C)C(=O)Oc1cccc2cccnc12 [Compound 3o, Quinolin-8-yl ethyl(methyl)carbamate] |  |  |  | 4.1 ± 0.02% | 8.2 ± 0.06 µM |  |  |  |  |  | 
6 | O=C(Oc1cccc2cccnc12)N1CCOCC1 [Compound 3p, Quinolin-8-yl morpholine-4-carboxylate] |  |  |  |  |  |  |  |  | 10.8 ± 0.07% | 12.6 ± 0.76 µM | 
7 | CC(C)N(C(=O)Oc1cccc2cccnc12)C(C)C [Compound 3q, Quinolin-8-yl diisopropylcarbamate] |  |  |  |  |  |  |  |  | 1.7 ± 0.01% | 14.8 ± 0.68 µM | 
8 | COc1cc2c(cc1OC)C(=O)C(CC1CCN(Cc3ccccc3)CC1)C2 (centres unmarked) [Donepezil, reference compound] |  |  |  |  |  |  |  |  |  |  | ACh activity (level) (ACh): 14.0 pmol/L
9 | CCN(C)C(=O)Oc1cccc([C@H](C)N(C)C)c1 [Rivastigmine, reference compound] |  |  |  |  |  |  |  |  |  |  | hBuChE activity (% control) (hBuChE; 0.1*IC50, diluted): 46.9 % control; hBuChE activity restored (hBuChE; 0.1 × IC50, 120 min): 62.3%; hBuChE activity restored (hBuChE; 0.1 × IC50, 240 min): 121.8%; hBuChE activity (% control) (hBuChE; 1*IC50, diluted): 52.3 % control; hBuChE activity (% control) (hBuChE; 1*IC50, undiluted): 51.4 % control
